Experimental findings from US20110040088A1, “FUSED HETEROCYCLIC COMPOUNDS” (priority 2003, published 2011) are described below.

Counter-ions that a name gives are not always drawn. Like-named read-outs stand apart in the source and are kept apart here.

Assay [1] addresses T1, rat 5-HT7a receptor (Rattus norvegicus, UniProt P32305).
T1 construct: expressed in transfected cells
Put plainly: 5-HT7 receptor radioligand binding ([3H]5-CT, membranes of transfected HEK-293 cells). The note with it: rat 5-HT7a in HEK-293 membranes, 1 nM [3H]5-CT.

The target of assay [2] is 5-HT2A receptor (UniProt P28223). Put plainly: 5-HT2A receptor radioligand binding ([3H]ketanserin).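 Further: competitive displacement binding on membranes, either from rat cerebral cortex or from NIH3T3 cells stably expressing human 5-HT2A.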
Description: The affinity of the compounds for the rat 5-HT2A receptor was evaluated by competitive radioligand binding assay using [^3H]ketanserine as the radioligand. The assay was performed on membranes from rat cortex as previously described (Schotte, A. et al., Psychopharmacology (1996) 124: 57-73). Briefly, brain tissue (rat cortex) was homogenized in 20 volumes per wet weight tissue of Tris-HCl buffer (50 mM, pH 7.4). The total membrane fraction was collected by centrifugation and washed by subsequent centrifugation runs (25 min at 25,000 g at 4° C.). Membranes were re-suspended in Tris-HCl buffer (50 mM, pH 7.4) containing 1 nM [^3H]ketanserin. Non-specific binding was estimated in the presence of 10 μM risperidone.
The target of assay [3] is human recombinant 5-HT2B receptor (Homo sapiens, UniProt P41595). Put plainly: 5-HT2B receptor radioligand binding ([3H]mesulergine, CHO membranes).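 Further: competitive displacement binding on membranes of CHO cells stably expressing the receptor.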
human recombinant 5-HT2B receptor, sequence (P41595 whole entry): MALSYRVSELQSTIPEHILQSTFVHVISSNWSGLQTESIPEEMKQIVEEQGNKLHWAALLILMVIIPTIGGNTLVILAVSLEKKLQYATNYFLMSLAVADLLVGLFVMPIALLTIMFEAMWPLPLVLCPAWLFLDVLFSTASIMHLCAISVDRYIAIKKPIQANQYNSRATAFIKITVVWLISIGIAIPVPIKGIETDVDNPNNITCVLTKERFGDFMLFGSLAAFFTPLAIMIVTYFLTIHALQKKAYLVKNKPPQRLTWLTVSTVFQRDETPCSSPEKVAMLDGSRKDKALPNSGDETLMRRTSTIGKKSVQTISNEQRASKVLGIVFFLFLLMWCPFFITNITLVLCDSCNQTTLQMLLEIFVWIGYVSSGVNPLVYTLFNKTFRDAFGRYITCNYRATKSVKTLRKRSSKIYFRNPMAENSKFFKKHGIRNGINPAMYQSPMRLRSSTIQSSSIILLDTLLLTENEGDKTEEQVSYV
Description: (§1) Affinity for 5HT2 Receptor Binding Sites
(§2) Receptor binding was performed using the human recombinant 5-HT2A (GB: X57830), 5-HT2B (GB: Z36748) and 5-HT2c (GB: M81778) receptors. The affinity of the compounds for the 3 different human 5-HT2 receptor subtypes was evaluated by competitive radioligand binding assays using [^3H]ketanserin (h5-HT2A) or [^3H]mesulergine (h5-HT2B and h5-HT2c). The assays were performed on membranes prepared from NIH3T3 stably transfected with h5-HT2A or CHO stably transfected with h5-HT2B and h5-HT2C.
The target in assay [4] is T2, human recombinant 5-HT2C receptor (Homo sapiens, UniProt P28335).
T2 sequence (P28335 33-458): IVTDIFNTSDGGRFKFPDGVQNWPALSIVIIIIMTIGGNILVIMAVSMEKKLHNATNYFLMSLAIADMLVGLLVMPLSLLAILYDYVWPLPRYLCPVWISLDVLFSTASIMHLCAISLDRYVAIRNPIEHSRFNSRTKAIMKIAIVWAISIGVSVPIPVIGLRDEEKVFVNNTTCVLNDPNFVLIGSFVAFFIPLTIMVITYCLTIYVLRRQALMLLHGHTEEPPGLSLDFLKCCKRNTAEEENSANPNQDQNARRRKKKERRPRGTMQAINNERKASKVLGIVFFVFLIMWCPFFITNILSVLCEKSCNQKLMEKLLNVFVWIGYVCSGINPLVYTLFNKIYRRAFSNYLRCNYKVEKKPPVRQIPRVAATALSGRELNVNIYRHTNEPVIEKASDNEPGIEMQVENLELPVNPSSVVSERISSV
Put plainly: 5-HT2C receptor radioligand binding ([3H]mesulergine, CHO membranes).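 Further: competitive displacement of the tritiated ligand, using membranes from CHO cells stably transfected with the human receptor.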
Description: as §1, §2

Setting [5] is: read-out: Ki 5-HT2A, table does not say whether rat cortex or human recombinant (NIH3T3) receptor.

T1 sequence (P32305 whole entry): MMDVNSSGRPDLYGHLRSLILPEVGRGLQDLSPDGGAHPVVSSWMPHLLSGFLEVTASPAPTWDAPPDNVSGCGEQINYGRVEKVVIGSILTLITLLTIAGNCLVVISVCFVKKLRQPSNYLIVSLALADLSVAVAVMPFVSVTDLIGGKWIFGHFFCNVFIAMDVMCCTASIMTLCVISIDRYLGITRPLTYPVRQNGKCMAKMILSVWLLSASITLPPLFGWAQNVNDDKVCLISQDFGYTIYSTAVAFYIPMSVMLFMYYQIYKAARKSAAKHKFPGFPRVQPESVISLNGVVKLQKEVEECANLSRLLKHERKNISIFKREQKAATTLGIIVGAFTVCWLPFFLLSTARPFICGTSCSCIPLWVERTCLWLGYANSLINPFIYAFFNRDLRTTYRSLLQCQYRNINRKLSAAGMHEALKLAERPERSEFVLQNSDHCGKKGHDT

Regarding `O=[N+]([O-])c1ccc(-c2cn(Cc3ccccc3)c3c2CNCC3)cc1` [Example 1, 1-Benzyl-3-(4-nitro-phenyl)-4,5,6,7-tetrahydro-1H-pyrrolo[3,2-c]pyridine], the Ki in assay [1] came out at 120 nM.

As for `Cc1c(-c2ccccc2)c2c(n1Cc1ccccc1)CCNC2` [Example 17, 1-Benzyl-2-methyl-3-phenyl-4,5,6,7-tetrahydro-1H-pyrrolo[3,2-c]pyridine], the affinity in assay [1] corresponds to a Ki of 70 nM.

In assay [1], `Cc1ccc(-c2cn(Cc3ccccc3)c3c2CNCC3)cc1` [Example 18, 1-Benzyl-3-p-tolyl-4,5,6,7-tetrahydro-1H-pyrrolo[3,2-c]pyridine] displayed a Ki of 25 nM.

Turning to `CCCCn1cc(-c2ccc(C)cc2)c2c1CCNC2` [Example 22, 1-Butyl-3-p-tolyl-4,5,6,7-tetrahydro-1H-pyrrolo[3,2-c]pyridine], the affinity in assay [1] corresponds to a Ki of 45 nM.

On to `c1ccc(Cn2cc(-c3ccccc3)c3c2CCNCC3)cc1` [Example 26, 1-Benzyl-3-phenyl-1,4,5,6,7,8-hexahydro-pyrrolo[2,3-d]azepine], for which the affinity in assay [1], expressed as Ki, was 18 nM.

Consider `Fc1ccc(-c2nn(Cc3ccccc3)c3c2CCNCC3)cc1` [Example 47, 1-Benzyl-3-(4-fluoro-phenyl)-1,4,5,6,7,8-hexahydro-1,2,6-triaza-azulene], for which the Ki in assay [1] worked out at 7 nM; in assay [2] (setting [5]), 9 nM; in assay [3] it was 64 nM; in assay [4], 24 nM.

In assay [1], `CCCN1CCc2c(-c3ccccc3)nn(Cc3ccccc3)c2CC1` [Example 57, 1-Benzyl-3-phenyl-6-propyl-1,4,5,6,7,8-hexahydro-1,2,6-triaza-azulene] returned a Ki of 15 nM.

Regarding `CCn1nc2c(c1-c1ccc(Cl)cc1)CCNCC2` [Example 64, 3-(4-Chloro-phenyl)-2-ethyl-2,4,5,6,7,8-hexahydro-1,2,6-triaza-azulene], the inhibition constant (Ki) in assay [1] was 19 nM; in assay [2] (setting [5]) it was 18 nM.

As for `Cc1cccc(Cn2nc(-c3ccc(Cl)cc3)c3c2CCNCC3)c1` [Example 74, 3-(4-Chloro-phenyl)-1-(3-methyl-benzyl)-1,4,5,6,7,8-hexahydro-1,2,6-triaza-azulene], the Ki in assay [1] came out at 5 nM; in assay [2] (setting [5]), 100 nM; in assay [3], 94 nM; in assay [4] it was 180 nM.

On to `Fc1ccc(Cn2nc(-c3ccc(Cl)cc3)c3c2CCNCC3)cc1` [Example 75, 3-(4-Chloro-phenyl)-1-(4-fluoro-benzyl)-1,4,5,6,7,8-hexahydro-1,2,6-triaza-azulene], for which the Ki in assay [1] is 7 nM; in assay [2] (setting [5]) it was 200 nM; in assay [3] it was 100 nM; in assay [4], 320 nM.

Consider `Fc1cccc(Cn2nc(-c3ccc(Cl)cc3)c3c2CCNCC3)c1` [Example 76, 3-(4-Chloro-phenyl)-1-(3-fluoro-benzyl)-1,4,5,6,7,8-hexahydro-1,2,6-triaza-azulene], for which the Ki in assay [1] is 8 nM; in assay [2] (setting [5]) it was 210 nM; in assay [3], 350 nM; in assay [4], 690 nM.

On to `OCCCCCn1nc(-c2ccc(Cl)cc2)c2c1CCNCC2` [Example 87, 5-[3-(4-Chloro-phenyl)-5,6,7,8-tetrahydro-4H-1,2,6-triaza-azulen-1-yl]-pentan-1-ol], for which, in assay [1], the affinity corresponds to a Ki of 33 nM.

Take `O=[N+]([O-])c1ccc(Cn2nc(-c3ccc(Cl)cc3)c3c2CCNCC3)cc1` [Example 98, 3-(4-Chloro-phenyl)-1-(4-nitro-benzyl)-1,4,5,6,7,8-hexahydro-1,2,6-triaza-azulene]: the Ki in assay [1] is 40 nM.

Take `CS(=O)(=O)Nc1ccc(Cn2nc(-c3ccccc3)c3c2CCNCC3)cc1` [Example 100, N-[4-(3-Phenyl-5,6,7,8-tetrahydro-4H-1,2,6-triaza-azulen-1-ylmethyl)-phenyl]-methanesulfonamide]: the Ki in assay [1] was determined as 30 nM.

In the case of `Clc1ccc(-c2nn(Cc3cccs3)c3c2CCNCC3)cc1` [Example 103, 3-(4-Chloro-phenyl)-1-thiophen-2-ylmethyl-1,4,5,6,7,8-hexahydro-1,2,6-triaza-azulene], the Ki amounted to 7.7 nM in assay [1], 60 nM in assay [2] (setting [5]), 44 nM in assay [3] and 150 nM in assay [4].

Consider `Fc1ccc(Cn2nc(-c3ccc(Cl)cc3)c3c2CCNCC3)c(F)c1` [Example 108, 3-(4-Chloro-phenyl)-1-(2,4-difluoro-benzyl)-1,4,5,6,7,8-hexahydro-1,2,6-triaza-azulene], for which the Ki was 9 nM in assay [1], 100 nM in assay [3] and 800 nM in assay [4].

As to `C=CCCn1nc(-c2ccc(Cl)cc2)c2c1CCNCC2` [Example 111, 1-But-3-enyl-3-(4-chloro-phenyl)-1,4,5,6,7,8-hexahydro-1,2,6-triaza-azulene], the Ki in assay [1] was determined as 17 nM.

For the compound `CCC(CC)Cn1nc(-c2ccc(Cl)cc2)c2c1CCNCC2` [Example 114, 3-(4-Chloro-phenyl)-1-(2-ethyl-butyl)-1,4,5,6,7,8-hexahydro-1,2,6-triaza-azulene], the inhibition constant (Ki) in assay [1] turned out to be 32 nM; in assay [3], 90 nM; in assay [4], 400 nM.

In assay [1], `Clc1ccc(-c2nn(CC3CCCCC3)c3c2CCNCC3)cc1` [Example 117, 3-(4-Chloro-phenyl)-1-cyclohexylmethyl-1,4,5,6,7,8-hexahydro-1,2,6-triaza-azulene] showed a Ki of 20 nM.

With `CC(C)Cn1nc(-c2ccc(Cl)cc2)c2c1CCNCC2` [Example 118, 3-(4-Chloro-phenyl)-1-isobutyl-1,4,5,6,7,8-hexahydro-1,2,6-triaza-azulene], the Ki in assay [1] was determined as 8 nM; in assay [2] (setting [5]) it was 20 nM.

Turning to `Clc1ccc(-c2nn(Cc3ccc4c(c3)OCO4)c3c2CCNCC3)cc1` [Example 119, 1-Benzo[1,3]dioxo1-5-ylmethyl-3-(4-chloro-phenyl)-1,4,5,6,7,8-hexahydro-1,2,6-triaza-azulene], affinity in assay [1] was put at a Ki of 39 nM.

As for `Clc1ccc(-c2nn(CC3CCOCC3)c3c2CCNCC3)cc1` [Example 120, 3-(4-Chloro-phenyl)-1-(tetrahydro-pyran-4-ylmethyl)-1,4,5,6,7,8-hexahydro-1,2,6-triaza-azulene], the affinity in assay [1] corresponds to a Ki of 40 nM.

As for `COc1ccc(CN2CCc3[nH]nc(-c4ccc(Cl)cc4)c3CC2)cc1OC` [Example 167, 3-(4-Chloro-phenyl)-6-(3,4-dimethoxy-benzyl)-1,4,5,6,7,8-hexahydro-1,2,6-triaza-azulene], the Ki in assay [1] stood at 75 nM; in assay [3], 350 nM; in assay [4], 10000 nM.

As to `Clc1ccc(-c2nn(-c3ccccc3)c3c2CCNCC3)cc1` [Example 172, 3-(4-Chloro-phenyl)-1-phenyl-1,4,5,6,7,8-hexahydro-1,2,6-triaza-azulene], in assay [1], affinity was put at a Ki of 37 nM.

In the case of `Cc1ccccc1Cn1nc(-c2ccc(Cl)cc2)c2c1CCNCCC2` [Example 174, 3-(4-Chloro-phenyl)-1-(2-methyl-benzyl)-4,5,6,7,8,9-hexahydro-1H-1,2,7-triaza-cyclopentacyclooctene], the affinity in assay [1] corresponds to a Ki of 40 nM.

With `Clc1ccc(-c2c3c(nn2C2CCCCC2)CCNCC3)cc1` [Example 178, 3-(4-Chloro-phenyl)-2-cyclohexyl-2,4,5,6,7,8-hexahydro-1,2,6-triaza-azulene], the Ki in assay [1] is 85 nM; in assay [2] (setting [5]) it was 3 nM; in assay [3], 3 nM.

With `CCC(CC)n1nc2c(c1-c1cccs1)CCNCC2` [Example 191, 2-(1-Ethyl-propyl)-3-thiophen-2-yl-2,4,5,6,7,8-hexahydro-1,2,6-triaza-azulene], in assay [1], the affinity, expressed as Ki, was 30 nM.

`CCn1nc2c(c1-c1ccc(C)cc1)CCNCC2` [Example 214, 2-Ethyl-3-p-tolyl-2,4,5,6,7,8-hexahydro-1,2,6-triaza-azulene]: the inhibitory constant (Ki) in assay [1] was 5 nM; in assay [3] it was 2 nM; in assay [4], 170 nM.

Regarding `CC(C)(C)n1nc2c(c1-c1ccccc1)CCNCC2` [Example 215, 2-tert-Butyl-3-phenyl-2,4,5,6,7,8-hexahydro-1,2,6-triaza-azulene], the figures for the Ki in assay [1], in assay [2] (setting [5]) and in assay [3] were 30 nM, 8 nM and 95 nM, respectively.

Turning to `CC(C)n1nc2c(c1-c1ccc([N+](=O)[O-])cc1)CCNCC2` [Example 253, 2-Isopropyl-3-(4-nitro-phenyl)-2,4,5,6,7,8-hexahydro-1,2,6-triaza-azulene], the Ki in assay [1] turned out to be 75 nM; in assay [3] it was 25 nM; in assay [4], 625 nM.

For `Clc1ccc(-c2nn(C3CCCCCCC3)c3c2CCNCC3)cc1` [Example 255, 3-(4-Chloro-phenyl)-1-cyclooctyl-1,4,5,6,7,8-hexahydro-1,2,6-triaza-azulene], the affinity in assay [1] corresponds to a Ki of 60 nM.

On to `CCc1ccc(-c2c3c(nn2CC)CCNCC3)cc1` [Example 257, 2-Ethyl-3-(4-ethyl-phenyl)-2,4,5,6,7,8-hexahydro-1,2,6-triaza-azulene], for which the Ki turned out to be 9 nM in assay [1], 2 nM in assay [3] and 110 nM in assay [4].

In the case of `Clc1ccc(-c2nn(Cc3ccccc3)c3c2CCNCC3)cc1` [Example 273, 1-Benzyl-3-(4-chloro-phenyl)-1,4,5,6,7,8-hexahydro-1,2,6-triaza-azulene citrate salt], the Ki was determined as 5 nM in assay [1] and 400 nM in assay [2] (read-out: Ki 5-HT2A, table does not say whether rat cortex or human recombinant (NIH3T3) receptor, citrate salt).
